Laboratory results from patent publication US20230081426A1, “COMPOUNDS AND METHODS FOR KRAS MODULATION AND INDICATIONS THEREFOR” (Plexxikon Inc., priority 2020, published 2023).

Key:
[1] = molecular target: T1, G12D-mutant human KRAS (amino acid residues 1-188) (Homo sapiens, UniProt P01116, G12D); assay: KRAS Binding Disruption Assay (AlphaScreen; biotinylated KRpep-2d analogue or RAF1-RBD), G12D; settings: KRAS G12D; geometric mean; read-out: KRAS GMean IC50 (uM) MUTATION: G12D
T1 construct: G12D or G12C-mutant human KRAS (amino acid residues 1-188) with FLAG tag; made in house; host or cells: E. coli
In short: (§1)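 Mutant KRAS (5-20 nM) incubated 1 h at 25° C with test compound and 5-20 nM biotinylated KRpep-2d analogue or RAF1-RBD in 20 mM HEPES pH 7.5, 100 mM NaCl, 5 mM MgCl2, 0.01% Tween-20, 0.01% BSA.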

[2] = molecular target: T2, G12C-mutant human KRAS (amino acid residues 1-188) (Homo sapiens, UniProt P01116, G12C); assay: KRAS Binding Disruption Assay (AlphaScreen; biotinylated KRpep-2d analogue or RAF1-RBD), G12C; settings: geometric mean, read-out: KRAS GMean IC50 (uM) MUTATION: G12C
T2 construct: G12D or G12C-mutant human KRAS (amino acid residues 1-188) with FLAG tag; made in house; host or cells: E. coli
In short: as §1

T1 sequence (P01116 1-188 isoform P01116-2 G12D): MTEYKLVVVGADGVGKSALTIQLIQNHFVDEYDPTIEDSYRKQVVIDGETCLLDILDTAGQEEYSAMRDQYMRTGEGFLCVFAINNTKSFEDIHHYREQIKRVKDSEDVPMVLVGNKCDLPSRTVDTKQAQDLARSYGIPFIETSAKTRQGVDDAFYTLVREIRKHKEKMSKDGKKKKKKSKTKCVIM
T2 sequence (P01116 1-188 isoform P01116-2 G12C): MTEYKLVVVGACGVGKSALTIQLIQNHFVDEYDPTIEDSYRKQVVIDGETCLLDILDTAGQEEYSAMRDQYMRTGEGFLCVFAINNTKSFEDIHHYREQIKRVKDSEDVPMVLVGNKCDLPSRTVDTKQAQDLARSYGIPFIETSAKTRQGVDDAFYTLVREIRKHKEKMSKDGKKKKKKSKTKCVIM

| SMILES | IC50 [1] | IC50 [2] |
| --- | --- | --- |
| Cc1ccc2[nH]cc(-c3c(F)cc4c(N5C[C@H]6CC[C@@H](C5)N6)nc(OC[C@@H]5CCCN5C)nc4c3F)c2c1 [P-0758, 4-((1R,5S)-3,8-diazabicyclo[3.2.1]octan-3-yl)-6,8-difluoro-7-(5-methyl-1H-indol-3-yl)-2-(((S)-1-methylpyrrolidin-2-yl)methoxy)quinazoline] | 0.0001 to 10 µM | 100 to 1000 µM |
| CN1CCC[C@H]1COc1nc(N2C[C@H]3CC[C@@H](C2)N3)c2cc(F)c(-c3c[nH]c4cc(F)ccc34)c(F)c2n1 [P-0759, 4-((1R,5S)-3,8-diazabicyclo[3.2.1]octan-3-yl)-6,8-difluoro-7-(6-fluoro-1H-indol-3-yl)-2-(((S)-1-methylpyrrolidin-2-yl)methoxy)quinazoline] | 0.0001 to 10 µM | 10 to 100 µM |
| CN1CCC[C@H]1COc1nc(N2C[C@H]3CC[C@@H](C2)N3)c2ccc(-c3cc(N)nc4ccccc34)c(F)c2n1 [P-0760, 4-(4-((1R,5S)-3,8-diazabicyclo[3.2.1]octan-3-yl)-8-fluoro-2-(((S)-1-methylpyrrolidin-2-yl)methoxy)quinazolin-7-yl)quinolin-2-amine] | 0.0001 to 10 µM | 10 to 100 µM |
| CN1CCC[C@H]1COc1nc(N2C[C@H]3CC[C@@H](C2)N3)c2ccc(-c3cc(=O)[nH]c4ccccc34)c(F)c2n1 [P-0761, 4-(4-((1R,5S)-3,8-diazabicyclo[3.2.1]octan-3-yl)-8-fluoro-2-(((S)-1-methylpyrrolidin-2-yl)methoxy)quinazolin-7-yl)quinolin-2(1H)-one] | 0.0001 to 10 µM | 100 to 1000 µM |
| CN1CCC[C@H]1COc1nc(N2C[C@H]3CC[C@@H](C2)N3)c2ccc(-c3nccc4cccc(C(F)(F)F)c34)c(F)c2n1 [P-0762, 4-((1R,5S)-3,8-diazabicyclo[3.2.1]octan-3-yl)-8-fluoro-2-(((S)-1-methylpyrrolidin-2-yl)methoxy)-7-(8-(trifluoromethyl)isoquinolin-1-yl)quinazoline] | 10 to 100 µM | 10 to 100 µM |
| Fc1ccc2[nH]cc(-c3ccc4c(N5C[C@H]6CC[C@@H](C5)N6)nc(OCC56CCCN5CCC6)nc4c3F)c2c1F [P-0763, 4-((1R,5S)-3,8-diazabicyclo[3.2.1]octan-3-yl)-7-(4,5-difluoro-1H-indol-3-yl)-8-fluoro-2-((tetrahydro-1H-pyrrolizin-7a(5H)-yl)methoxy)quinazoline] | 0.0001 to 10 µM | 0.0001 to 10 µM |
| Fc1c(-c2c[nH]c3cccc(F)c23)ccc2c(N3C[C@H]4CC[C@@H](C3)N4)nc(OCC34CCCN3CCC4)nc12 [P-0764, 4-((1R,5S)-3,8-diazabicyclo[3.2.1]octan-3-yl)-8-fluoro-7-(4-fluoro-1H-indol-3-yl)-2-((tetrahydro-1H-pyrrolizin-7a(5H)-yl)methoxy)quinazoline] | 0.0001 to 10 µM | 0.0001 to 10 µM |
| Fc1ccc2[nH]cc(-c3c(Cl)cc4c(N5C[C@H]6CC[C@@H](C5)N6)nc(OCC56CCCN5CCC6)nc4c3F)c2c1F [P-0765, 4-((1R,5S)-3,8-diazabicyclo[3.2.1]octan-3-yl)-6-chloro-7-(4,5-difluoro-1H-indol-3-yl)-8-fluoro-2-((tetrahydro-1H-pyrrolizin-7a(5H)-yl)methoxy)quinazoline] | 0.0001 to 10 µM | 0.0001 to 10 µM |
| O=C1CC(COc2nc(N3C[C@H]4CC[C@@H](C3)N4)c3ccc(-c4cc(O)cc5ccccc45)c(F)c3n2)CN1 (stereo partly drawn) [P-0766, 4-(((4-((1R,5S)-3,8-diazabicyclo[3.2.1]octan-3-yl)-8-fluoro-7-(3-hydroxynaphthalen-1-yl)quinazolin-2-yl)oxy)methyl)pyrrolidin-2-one] | 0.0001 to 10 µM | 10 to 100 µM |
| O=C1NCCC1COc1nc(N2C[C@H]3CC[C@@H](C2)N3)c2ccc(-c3cc(O)cc4ccccc34)c(F)c2n1 (stereo partly drawn) [P-0767, 3-(((4-((1R,5S)-3,8-diazabicyclo[3.2.1]octan-3-yl)-8-fluoro-7-(3-hydroxynaphthalen-1-yl)quinazolin-2-yl)oxy)methyl)pyrrolidin-2-one] | 0.0001 to 10 µM | 10 to 100 µM |
